Assay results: US10172957B2, “Acid-labile lipophilic prodrugs of cancer chemotherapeutic agents” (priority 2011, dated 2019)
Where two headings read alike, the source gives them in different places.

What was measured:
[1] = test system: SK-N-AS cells (MDR− Neuroblastoma); experiment: MTS proliferation assay using SK-N-AS cells; assay type: cell-based; conditions: Homo sapiens, read-out: IC50 in SK-N-AS
Protocol: SK-N-AS cells were plated in appropriate growth medium at 5×10^3 per well in 100 μL in 96 well tissue culture plates, Falcon, one plate for each drug to be tested. Column 1 was blank; it contained medium, but no cells. The plates were incubated overnight at 37° C. in 5% CO2 to allow attachment.
Drug diluted in culture media was added to the cells at a concentration of 0.005 nM to 10 μM, in quadruplicate. After 48-72 hours of drug exposure, the MTS agent was added to all wells and incubated 1-6 hrs (37° C., 5% CO2), depending on cell type, as per CellTiter 96® AQueous Non-Radioactive Cell Proliferation Assay (MTS), Promega. Plates were processed using a Bio-Tek Synergy HT Multi-detection microtiter plate reader at 490 nanometer wavelength and data were processed with KC4V.3 software. Data plots of drug concentration vs. absorbance were plotted and the concentration resulting in 50% inhibition (IC50) was extrapolated for each of the tested compounds.
As summarized in Table 1, the IC50 value for each tested compound in the SK-N-AS cell line was determined. The clinical comparator drug, paclitaxel, was included in the experiment to allow comparison of the results of the candidate compounds to a clinically relevant standard in the taxane class.

[2] = test system: MES-SA uterine sarcoma line; experiment: MTT-based cytotoxicity assay, MES-SA; assay type: cell-based, human; conditions: read-out: IC50 MESSA (Hs)
Description: (§1) A second evaluation of the cytotoxicity of the acid labile, lipophilic molecular conjugates was undertaken.
(§2) These lines included a uterine sarcoma line, MES-SA, and its doxorubicin-resistant subline, MES-SA/Dx5. See W. G. Harker, F. R MacKintosh, and B. I. Sikic. Development and characterization of a human sarcoma cell line, MES-SA, sensitive to multiple drugs. Cancer Research 43: 4943-4950 (1983); W. G. Harker and B. I. Sikic. Multidrug (pleiotropic) resistance in doxorubicin-selected variants of the human sarcoma cell line MES-SA. Cancer Research 45: 4091 4096 (1985).
(§3) MES-SA/Dx5 cells express high levels of ABCB1 (MDR1) mRNA and its gene product, the P-glycoprotein. MES-SA and MES-SA/Dx5 were purchased from the American Type Culture Collection (ATCC, Manassas, Va.).

CEM/VLB100 cells (MDR+) = experiment: cells; assay type: cell-based, human; conditions: for Degree of resistance (CEM/VLB100): IC50 of the resistant line divided by IC50 of sensitive CEM cells
Description: as §1, §2
(§4) The second set of cells tested, CCRF-CEM or simply CEM, were derived from the blood of a patient with acute lymphoblastic leukemia. G. E. Foley, H. Lazarus, S. Farber, B. G. Uzman, B. A. Boone, and R E. McCarthy. Continuous culture of human lymphoblasts from peripheral blood of a child with acute leukemia. Cancer 18: 522-529 (1965). The subline CEM/VLB100 was developed to be resistant to up to vinblastine at 100 ng/ml. W. T. Beck, T. J. Mueller, and L. R. Tanzer. Altered surface membrane glycoproteins in Vinca alkaloid-resistant human leukemic lymphoblasts. Cancer Research 39: 2070-2076 (1979). Drug resistance is achieved by overexpression of the MDR1 gene. Resistance in the CEM subline designated CEM/VM-1-5, however, is “atypical.” M. K. Danks, J. C. Yalowich, and W. T. Beck. Atypical multiple drug resistance in a human leukemic cell line selected for resistance to teniposide (VM-26). Cancer Research 47: 1297-1301 (1987). The classes of drugs included in the “classic” multiple drug resistance phenotype are Vinca alkaloids, anthracyclines, epipodophyllotoxins and antibiotics. However, CEM/VM-1-5 cells retain sensitivity to the Vinca alkaloids despite resistance and cross-resistance to etoposide, anthracyclines and mitoxantrone. Danks, M. K.; Schmidt, C. A.; Cirtain, M. C.; Suttle, D. P.; Beck, W. T., Altered catalytic activity of and DNA cleavage by DNA topoisomerase II from human leukemic cells selected for resistance to VM-26. Biochemistry 1988, 27, 8861-8869. Resistance in CEM/VM-1-5 cells is effected by over expression of the […]. CEM, CEM/VLB100 and CEM/VM-1-5 cells were obtained from Dr. WT Beck, University of Illinois at Chicago.

[3] = test system: MES-SA/Dx5 doxorubicin-resistant subline (MDR+); experiment: cells; assay type: cell-based, human; conditions: for Degree of resistance (MESSA/Dx5): IC50 of the resistant line divided by IC50 of sensitive MES-SA cells
Description: as §1, §2, §3

CCRF-CEM (CEM) cells = experiment: MTT-based cytotoxicity assay, CEM; assay type: cell-based, human
Description: as §1, §2, §4

CEM/VM-1-5 cells (MDR+) = experiment: cells; assay type: cell-based, human; conditions: for Degree of resistance (CEM/VM-1-5): IC50 of the resistant line divided by IC50 of sensitive CEM cells
Description: A second evaluation of the cytotoxicity of the acid labile, lipophilic molecular conjugates was undertaken. […]
as §4

[4] = SK-N-AS (MDR− Neuroblastoma), MTS, 48-72 hours drug exposure
[5] = Homo sapiens, read-out: IC50 CEM/VM-1-5 (MDR + HTL), CEM/VM-1-5, MTT

Q: How did the IC50 [1, 4] turn out when `C=CCCCCOC(=O)O[C@@H]1C(=O)C=C(C)[C@@H]2C[C@H]3OC(=O)C(OC(=O)CC(O)(C(C)C)C(C)C)C4[C@@H](C)[C@@H](O)[C@]5(O)OC[C@@]43C5[C@@]12C` (stereo partly drawn) [ART 448] was run?
A: Its IC50 is 5 ± 0.7 nM.

Q: How did the IC50 [1, 4] turn out when `CC1=CC(=O)[C@@H](OC(CBr)OC(C)(C)C)[C@]2(C)C3[C@]45CO[C@@]3(O)[C@H](O)[C@H](C)C4C(OC(=O)CC(O)(C(C)C)C(C)C)C(=O)O[C@@H]5C[C@@H]12` (stereo partly drawn) [ART 471] was run?
A: Its IC50 is 262 ± 12 nM.

Q: With doxorubicin [reference compound] as the compound, how does the IC50 ([2]; MES-SA human sarcoma, MTT) read?
A: The IC50 was 2 nM.

Q: And the IC50 (CEM/VLB100 cells (MDR+); CEM/VLB100, MTT, read-out: IC50 CEM/VLB100 (MDR + HTL))?
A: The IC50 was 2100 nM.

Q: And the “Degree of resistance (CEM/VLB100)” value (CEM/VLB100 cells (MDR+))?
A: Its value is 150.

Q: And the “Degree of resistance (MESSA/Dx5)” value [3]?
A: The value was 49.

Q: What about the IC50 ([3]; MES-SA/Dx5, MTT, read-out: IC50 MESSA/Dx5 (MDR + Hs)) of the same compound?
A: Its IC50 is 97 nM.

Q: What about the IC50 (CCRF-CEM (CEM) cells; CEM human T-lymphoblastoid, MTT, read-out: IC50 CEM (HTL)) of the same compound?
A: Its IC50 is 14 nM.

Q: And the IC50 (CEM/VM-1-5 cells (MDR+); CEM/VM-1-5, MTT, read-out: IC50 CEM/VM-1-5 (MDR + HTL))?
A: Its IC50 is 3060 nM.

Q: What about the “Degree of resistance (CEM/VM-1-5)” value (CEM/VM-1-5 cells (MDR+)) of the same compound?
A: The value was 219.

Q: For `CCCCCCCCCCC1(C)OCC(COC(=O)O[C@@H]2C(=O)C=C(C)[C@@H]3C[C@H]4OC(=O)[C@H](OC(=O)CC(O)(C(C)C)C(C)C)[C@H]5[C@@H](C)[C@@H](O)[C@]6(O)OC[C@@]54[C@H]6[C@@]23C)O1` (stereo partly drawn) [ART 332], which IC50 [1, 4] is on record?
A: The IC50 was 1.1 ± 0.5 nM.

Q: What does the source list for `CC(=O)O[C@H]1C(=O)[C@@]2(C)[C@H]([C@H](OC(=O)c3ccccc3)[C@]3(O)C[C@H](OC(=O)[C@H](O)[C@@H](NC(=O)c4ccccc4)c4ccccc4)C(C)=C1C3(C)C)[C@]1(OC(C)=O)CO[C@@H]1C[C@@H]2O` [Paclitaxel, paclitaxel, reference compound]?
A: IC50 ([2]; Homo sapiens, MES-SA): 9 ± 7 nM; Degree of resistance (MESSA/Dx5) [3]: 3105 ± 2416; IC50 (CEM/VM-1-5 cells (MDR+); [5]): < 11 nM; Degree of resistance (CEM/VM-1-5) (CEM/VM-1-5 cells (MDR+)): 4; IC50 ([1]; SK-N-AS): 0.05 ± 0.01 nM

Q: How did the IC50 [1, 4] turn out when `CCCCCCCCCCCCCCCCCCOC(CBr)O[C@@H]1C(=O)C=C(C)[C@@H]2C[C@H]3OC(=O)C(OC(=O)CC(O)(C(C)C)C(C)C)C4[C@@H](C)[C@@H](O)[C@]5(O)OC[C@@]43C5[C@@]12C` (stereo partly drawn) [ART 472] was run?
A: The IC50 was 1.19 ± 0.5 nM.

Q: Which results are given for `CC[C@]1(O)C[C@@H]2CN(CCc3c([nH]c4ccccc34)[C@@](C(=O)OC)(c3cc4c(cc3OC)N(C)[C@H]3[C@@](O)(C(=O)OC)[C@H](OC(C)=O)[C@]5(CC)C=CCN6CC[C@]43[C@@H]65)C2)C1` [Vinblastine, vinblastine, reference compound]?
A: IC50 ([2]; Homo sapiens, MES-SA): 1.1 ± 0.3 nM; Degree of resistance (CEM/VLB100) (CEM/VLB100 cells (MDR+)): 255 ± 127; IC50 ([3]; Homo sapiens, MES-SA/Dx5, read-out: IC50 MESSA/Dx5 (MDR + Hs)): 43 ± 12 nM; Degree of resistance (MESSA/Dx5) [3]: 38.5 ± 0.7; IC50 (CCRF-CEM (CEM) cells; Homo sapiens, CCRF-CEM, read-out: IC50 CEM (HTL), CEM human T-lymphoblastoid, MTT): 1 ± 0.8 nM; IC50 (CEM/VM-1-5 cells (MDR+); [5]): 1.3 ± 0.9 nM; Degree of resistance (CEM/VM-1-5) (CEM/VM-1-5 cells (MDR+)): 1.2 ± 0.07

Q: With `CC1=CC(=O)[C@@H](OC(CBr)OC2CCCCC2)[C@]2(C)C3[C@]45CO[C@@]3(O)[C@H](O)[C@H](C)C4C(OC(=O)CC(O)(C(C)C)C(C)C)C(=O)O[C@@H]5C[C@@H]12` (stereo partly drawn) [ART 473] as the compound, how does the IC50 [1, 4] read?
A: The IC50 was 12.6 ± 0.9 nM.

Q: How did the IC50 [1, 4] turn out when `CC/C=C\C/C=C\C/C=C\C/C=C\C/C=C\C/C=C\CCCOC(=O)O[C@@H]1C(=O)C=C(C)[C@@H]2C[C@H]3OC(=O)C(OC(=O)CC(O)(C(C)C)C(C)C)C4[C@@H](C)[C@@H](O)[C@]5(O)OC[C@@]43C5[C@@]12C` (stereo partly drawn) [ART 449] was run?
A: Its IC50 is 4 ± 0.5 nM.

Q: How did the IC50 [1, 4] turn out when `CCOC(CBr)O[C@@H]1C(=O)C=C(C)[C@@H]2C[C@H]3OC(=O)C(OC(=O)CC(O)(C(C)C)C(C)C)C4[C@@H](C)[C@@H](O)[C@]5(O)OC[C@@]43C5[C@@]12C` (stereo partly drawn) [ART 470] was run?
A: Its IC50 is 349 ± 15 nM.
